# Measurements: PubChem BioAssay (NCI)
#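 Each compound was tested at five concentrations against cells in 96-well plates for 48 hours. GI50 is the concentration that inhibits growth by half. At the TGI there is no net growth.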
# Columns and labels:
# Assay in all cases: inhibition of tumour cell growth, NCI panel, 48 h
# [1] = tested on: UACC-257 melanoma
# [2] = tested on: LOX IMVI melanoma
# [3] = tested on: IGROV1 ovarian
# [4] = tested on: OVCAR-5 ovarian
# [5] = tested on: KM20L2 colon
# [6] = tested on: XF 498 CNS
# [7] = tested on: HCT-15 colon
# [8] = tested on: K-562 leukemia
# [9] = tested on: HOP-18 NSCLC
# [10] = tested on: U251 CNS
# [11] = tested on: DMS 114 small cell lung
# [12] = tested on: DLD-1 colon
# [13] = tested on: A498 renal
# [14] = tested on: CAKI-1 renal
# [15] = tested on: NCI-H226 lung
# [16] = tested on: NCI-H522 lung
# [17] = tested on: HL-60(TB) leukemia
# [18] = tested on: SK-MEL-5 melanoma
# [19] = tested on: SK-OV-3 ovarian
# [20] = tested on: RPMI-8226 leukemia
# [21] = tested on: SK-MEL-28 melanoma
# [22] = tested on: M14 melanoma
# [23] = tested on: MALME-3M melanoma
# [24] = tested on: COLO 205 colon
# [25] = tested on: NCI-H23 lung
# [26] = tested on: SNB-75 CNS
# [27] = tested on: NCI-H460 lung
# [28] = tested on: LXFL 529 NSCLC
# [29] = tested on: UACC-62 melanoma
# [30] = tested on: CCRF-CEM leukemia
# [31] = tested on: TK-10 renal
# [32] = tested on: SN12C renal
# [33] = tested on: EKVX NSCLC
# [34] = tested on: HOP-62 NSCLC
# [35] = tested on: SNB-19 CNS
# [36] = tested on: SF-539 CNS
# [37] = tested on: HCT-116 colon
# [38] = tested on: SW-620 colon
# [39] = tested on: A549 NSCLC
# [40] = tested on: 786-0 renal
# [41] = tested on: OVCAR-8 ovarian
# [42] = tested on: SF-268 CNS
# [43] = tested on: SR leukemia
# [44] = tested on: HT29 colon
# [45] = tested on: KM12 colon
# [46] = tested on: UO-31 renal
# [47] = tested on: ACHN renal
# [48] = tested on: HCC-2998 colon
# [49] = tested on: MOLT-4 leukemia
# [50] = tested on: OVCAR-3 ovarian
# [51] = tested on: SF-295 CNS
# [52] = tested on: M19-MEL melanoma
# [53] = tested on: RXF 393 renal
# [54] = tested on: HOP-92 NSCLC
# [55] = tested on: OVCAR-4 ovarian
# [56] = tested on: SK-MEL-2 melanoma
# [57] = tested on: DMS 273 small cell lung
# [58] = tested on: SNB-78 CNS
smiles,measurement,setting,value
O=C(CC1=Nc2nnc(CCCCCCCc3nnc4n3C(=O)C(CC(=O)c3ccccc3)=N4)n2C1=O)c1ccccc1,TGI,[1],> 100 µM
same,TGI,[2],> 100 µM
same,TGI,[3],> 100 µM
same,TGI,[4],> 100 µM
same,TGI,[5],> 100 µM
same,TGI,[6],> 100 µM
same,TGI,[7],> 100 µM
same,TGI,[8],> 100 µM
same,TGI,[9],> 100 µM
same,TGI,[10],> 100 µM
same,TGI,[11],> 100 µM
same,TGI,[12],> 100 µM
same,TGI,[13],> 100 µM
same,TGI,[14],> 100 µM
same,TGI,[15],> 100 µM
same,TGI,[16],> 100 µM
same,TGI,[17],> 100 µM
same,TGI,[18],> 100 µM
same,TGI,[19],> 100 µM
same,TGI,[20],> 100 µM
same,TGI,[21],> 100 µM
same,TGI,[22],> 100 µM
same,TGI,[23],> 100 µM
same,TGI,[24],> 100 µM
same,TGI,[25],> 100 µM
same,TGI,[26],> 100 µM
same,TGI,[27],> 100 µM
same,TGI,[28],> 100 µM
same,TGI,[29],> 100 µM
same,TGI,[30],> 100 µM
same,TGI,[31],> 100 µM
same,TGI,[32],> 100 µM
same,TGI,[33],> 100 µM
same,TGI,[34],> 100 µM
same,TGI,[35],> 100 µM
same,TGI,[36],> 100 µM
same,TGI,[37],> 100 µM
same,TGI,[38],> 100 µM
same,TGI,[39],> 100 µM
same,TGI,[40],> 100 µM
same,TGI,[41],> 100 µM
same,TGI,[42],> 100 µM
same,TGI,[43],> 100 µM
same,TGI,[44],> 100 µM
same,TGI,[45],> 100 µM
same,TGI,[46],> 100 µM
same,TGI,[47],> 100 µM
same,TGI,[48],> 100 µM
same,TGI,[49],> 100 µM
same,TGI,[50],> 100 µM
same,TGI,[51],> 100 µM
same,TGI,[52],> 100 µM
same,TGI,[53],> 100 µM
same,TGI,[54],> 100 µM
FC(F)(F)c1nnn[n-]1.[Au+].c1ccc([PH+](c2ccccc2)c2ccccc2)cc1,GI50,[1],1.82 µM
same,TGI,[1],7.43 µM
same,GI50,[2],2.26 µM
same,TGI,[2],7.64 µM
same,GI50,[3],2.69 µM
same,TGI,[3],13.2 µM
same,GI50,[4],16.1 µM
same,TGI,[4],30 µM
same,GI50,[55],2.09 µM
same,TGI,[55],6.67 µM
same,GI50,[5],6.74 µM
same,TGI,[5],16.6 µM
same,GI50,[7],2.19 µM
same,TGI,[7],6.92 µM
same,GI50,[9],8.67 µM
same,TGI,[9],20.5 µM
same,GI50,[10],3.04 µM
same,TGI,[10],11.1 µM
same,GI50,[11],1.95 µM
same,TGI,[11],15 µM
same,GI50,[12],1.95 µM
same,TGI,[12],5.04 µM
same,GI50,[14],3.6 µM
same,TGI,[14],14.2 µM
same,GI50,[15],10.9 µM
same,TGI,[15],26.3 µM
same,GI50,[16],1.33 µM
same,TGI,[16],2.81 µM
same,GI50,[17],0.161 µM
same,TGI,[17],0.42 µM
same,GI50,[18],2 µM
same,TGI,[18],7.15 µM
same,GI50,[19],15.6 µM
same,TGI,[19],29 µM
same,GI50,[20],1.41 µM
same,TGI,[20],4.63 µM
same,GI50,[21],2.49 µM
same,TGI,[21],7.35 µM
same,GI50,[22],1.78 µM
same,TGI,[22],4.37 µM
same,GI50,[23],1.58 µM
same,TGI,[23],3.35 µM
same,GI50,[24],2.62 µM
same,TGI,[24],6.94 µM
same,GI50,[25],2.79 µM
same,TGI,[25],9.11 µM
same,GI50,[26],8.64 µM
same,TGI,[26],22.1 µM
same,GI50,[27],16.6 µM
same,TGI,[27],50.4 µM
same,GI50,[56],3.09 µM
same,TGI,[56],10.8 µM
same,GI50,[28],1.48 µM
same,TGI,[28],2.82 µM
same,GI50,[57],5.62 µM
same,TGI,[57],54.7 µM
same,GI50,[29],2.17 µM
same,TGI,[29],10.7 µM
same,GI50,[30],0.449 µM
same,TGI,[30],2.91 µM
same,GI50,[31],3.51 µM
same,TGI,[31],9.27 µM
same,GI50,[32],6.34 µM
same,TGI,[32],16.4 µM
same,GI50,[33],5.65 µM
same,TGI,[33],10.4 µM
same,GI50,[34],19.7 µM
same,TGI,[34],34.2 µM
same,GI50,[35],4.07 µM
same,TGI,[35],13.6 µM
same,GI50,[36],5.18 µM
same,TGI,[36],19.4 µM
same,GI50,[37],12.4 µM
same,TGI,[37],24.9 µM
same,GI50,[39],19.3 µM
same,TGI,[39],62.3 µM
same,GI50,[40],1.84 µM
same,TGI,[40],3.55 µM
same,GI50,[41],2.77 µM
same,TGI,[41],9.18 µM
same,GI50,[58],6.66 µM
same,TGI,[58],> 62.7 µM
same,GI50,[42],4.2 µM
same,TGI,[42],13.1 µM
same,GI50,[43],1.3 µM
same,TGI,[43],3.65 µM
same,GI50,[44],4.25 µM
same,TGI,[44],13.2 µM
same,GI50,[45],13.2 µM
same,TGI,[45],42.5 µM
same,GI50,[46],6.84 µM
same,TGI,[46],16.7 µM
same,GI50,[47],4.63 µM
same,TGI,[47],9.84 µM
same,GI50,[48],10.3 µM
same,TGI,[48],22.3 µM
same,GI50,[49],1.52 µM
same,TGI,[49],4.09 µM
same,GI50,[50],2.89 µM
same,TGI,[50],7.49 µM
same,GI50,[51],11 µM
same,TGI,[51],41.3 µM
same,GI50,[52],2.74 µM
same,TGI,[52],15.7 µM
same,GI50,[53],1.52 µM
same,TGI,[53],3.11 µM
same,GI50,[54],2.38 µM
same,TGI,[54],4.59 µM
